Strand notation (5' to 3'): a small letter for the sugar, then the base; units joined by * are phosphorothioate-linked, units joined directly phosphodiester-linked; [ ] holds rarer units or linkages, { } end groups; capitals alone tell only the bases. d = 2'-deoxy (DNA)
Experiments:
[1] = test system: experimental autoimmune encephalomyelitis; details: mouse model; cited from earlier work
auto-reactive T cells = details: cited from earlier work
[2] = test system: P815 transfected with IDO; details: concomitant administration; cited from earlier work
Lewis Lung carcinoma = Lewis Lung carcinoma model; cited from earlier work
OT-I and A1 T cells = assay: Bystander-suppression assays (TDLN IDO+ DCs, OT-I, Tregs, A1 bystander cells); format: cell-based, mouse
Procedure: Isolation of tumor-draining lymph node DCs.
Bystander-suppression assays. All experiments were repeated 3-5 times unless otherwise indicated. OT-I cells were sorted as CD8^+ spleen cells, gated on the CD11c^NEGB220^NEG fraction to exclude DCs. Sorted DCs from TDLN were mixed with 1×10^5 responder cells at a 1:40 ratio in V-bottom culture wells (Nunc). […] Sorted CD4^+ A1 cells (1×10^5) and CD11c^+ DCs (1:40 ratio) from normal CBA spleen were added as bystander cells. […] For transwell assays, 96-Multiwell insert plates (1 uM pore size, BD Falcon) were used and the number of cells in all groups was doubled.
Feeder layer. Plasmacytoid DCs and Tregs have been reported to require survival factors to maintain viability and function in vitro.
Readouts for T cell proliferation. […] After 72 hours, assays were stained for CD4 vs CD8 and CFSE fluorescence analyzed gated on CD4^+ (A1) and CD8^+ (OT-I) populations.
Anti-CD3 proliferation and preactivation assays. […] For pre-activation studies, 2×10^4 Tregs were cultured with 1×10^5T-depleted spleen cells plus 0.1 ug/ml αCD3 antibody and 200 U/ml IL-2 (R&D Systems) for 48 hours.

[3] = test system: primed CD4+ T cells / naive CD4+ T cells; assay: MLR assays of function of CpG-PDC or CpG-B cell primed CD4+ T cells; format: cell-based, human; details: KYN added to priming MLRs containing 1MT
Procedure: In vitro priming of naive CD4+ T cells. CD4+CD45RA+ naive T cells were primed with allogeneic PDCs or irradiated B cells (30 Gy) at a 10:1 ratio (e.g., 2×10^6 naive CD4+ T cells plus 2×105 PDCs per well in 24-well plates) with ODN 2216 or ODN 2006 present in RPMI 1640 medium supplemented with 10% human AB serum. 1 MT and/or KYN were added into CpG ODN-PDC or CpG ODN-B cell mediated naive CD4+ T cell priming cultures as indicated. In some experiments, blocking Abs against CD80, CD86, HLA-DR or the control IgG Ab (R&D Systems, Minneapolis, Minn.) were added to CpG-PDC-mediated naive CD4+ T cell priming cultures at a final Ab concentration ranging from 0.1 to 10 μg/ml. After 7 days, primed T cells in cultures were harvested, assessed for their surface phenotype, intracellular Foxp3 expression, and their function in MLR assays.
MLR assays. […] In all T cell proliferation assays, plates were incubated at 37° C. for 5 days and pulsed with 1 μCi of 3H-thymidine per well for the last 18 hours before harvesting. All determinations were carried out in triplicate and 3H-thymidine incorporation was determined.

[4] = test system: PDCs and allogeneic naive CD4+ T cells; assay: In vitro priming of naive CD4+ T cells by allogeneic PDCs: CD4+CD25+Foxp3+ Treg generation (flow cytometry); format: cell-based, human
Source text: PDC, B, and T cell isolation. Human PBMC were isolated under IRE-approved protocols from apheresis products of healthy blood donors (Memorial Blood Centers of Minnesota, Minneapolis, Minn.) by Ficoll-Paque density gradient centrifugation. Plasmascytoid dendritic cells (PDCs) were isolated from PBMC using BDCA-4 cell isolation kits and the MACS system, followed by staining and sorting to collect purified Lin-CD11c-CD123+ PDCs, as reported previously (Moseman et al., J Immunol 2004; 173:4433-4442). […] cells were isolated from PBMC using CD4 T cell isolation kits followed by positive selection with CD45RA microbeads. […] B cells were isolated from PBMC with CD19 microbeads and the MACS system to greater than 98% purity of CD19+ B cells. All cell isolations kits and microbeads were from Miltenyi Biotec (Bergisch Gladbach, Germany). Reagents. Phosphorothioate-modified type-A CpG ODN 2216: […] NO:2), type-B CpG ODN 2006: […] NO:3) (sequences are shown 5'-3'; small letters represent phosphorothioate linkage; capital letters represent phosphodiester linkage 3' of the base; bold represents CpGdinucleotides) were from Integrated DNA Technologies (Coralville, Iowa), diluted in PBS, and used at a final concentration of 1 microgran per milliliter (μg/ml). […] Kynurenine (L-KYN, Sigma-Aldrich) was used at a final concentration of 50 μM. In vitro priming of naive CD4+ T cells. CD4+CD45RA+ naive T cells were primed with allogeneic PDCs or irradiated B cells (30 Gy) at a 10:1 ratio (e.g., 2×10^6 naive CD4+ T cells plus 2×105 PDCs per well in 24-well plates) with ODN 2216 or ODN 2006 present in RPMI 1640 medium supplemented with 10% human AB serum. 1 MT and/or KYN were added into CpG ODN-PDC or CpG ODN-B cell mediated naive CD4+ T cell priming cultures as indicated. […] After 7 days, primed T cells in cultures were harvested, assessed for their surface phenotype, intracellular Foxp3 expression, and their function in MLR assays. […] Mean fluorescence intensity (MFI) and positive cell percentages of stained cells were determined by flow cytometry.

IDO protein in PDCs = assay: Western blot for IDO protein in cultured PDCs; format: cell-based, human; details: 48 hours culture with CpG ODN
Procedure: Western blots. Protein lysates were prepared from 2×10^5 fresh or cultured PDCs or B cells. Western blot was performed with antibody specific for IDO protein

PDCs = assay: Surface expression of CD80, CD86, HLA-DR on PDCs (flow cytometry); format: cell-based, human; details: CpG ODN stimulation 48 hours
Source text: PDC, B, and T cell isolation. Human PBMC were isolated under IRE-approved protocols from apheresis products of healthy blood donors (Memorial Blood Centers of Minnesota, Minneapolis, Minn.) by Ficoll-Paque density gradient centrifugation. Plasmascytoid dendritic cells (PDCs) were isolated from PBMC using BDCA-4 cell isolation kits and the MACS system, followed by staining and sorting to collect purified Lin-CD11c-CD123+ PDCs, as reported previously (Moseman et al., J Immunol 2004; 173:4433-4442). CD4+CD45RA+ naïve T cells were isolated from PBMC using CD4 T cell isolation kits followed by positive selection with CD45RA microbeads. The purity of naïve CD4+ T cells was greater than 95% for CD4+CD45RA+ expression and less than 0.5% for CD25+ expression. B cells were isolated from PBMC with CD19 microbeads and the MACS system to greater than 98% purity of CD19+ B cells. All cell isolations kits and microbeads were from Miltenyi Biotec (Bergisch Gladbach, Germany).
Flow Cytometry. Fluorescent antibodies (Abs) against human CD3, CD4, CD11c, CD19, CD25, CD40, CD45, CD45RA, CD45RO, CD80, CD86, CD123, HLA-DR, lineage (Lin) markers, and isotype control Abs were from BD Biosciences (San Diego, Calif.). […] Mean fluorescence intensity (MFI) and positive cell percentages of stained cells were determined by flow cytometry.

splenic Tregs = assay: Flow cytometry of CHOP and FoxP3 in splenic Tregs of treated mice; format: in vivo, mouse; details: wild-type mice
Procedure: (§1) CpG Oligonucleotides. CpG-ODNs (CpG no. 1826, […]; (SEQ ID NO:4) and sequence matched non-CpG-B no. 2138, […] (SEQ ID NO:5)) with fully phosphorothioate backbones were purchased from Coley Pharmaceuticals. Mice were injected with relatively high doses of ODNs (50 μg/mouse, i/v) as described (Mellor et al. J Immunol 2005; 175:5601-5605).
Analytical flow cytometry. Intracellular CHOP staining was performed as described (Munn et al. (2005) Immunity 22:1-10), using antibody sc-7351 (Santa Cruz Biotechnology, Santa Cruz, Calif.).

BM3 T cells [5] = assay: Co-adoptive transfer of Tregs and BM3 T cells into CBK recipients; format: in vivo, mouse; details: 96 hours
Procedure: Co-Adoptive Transfer. Purified (Mo-Flo sorted) CD4+CD25+ Tregs were prepared from spleens of CBK donor mice treated 24 hours previously with either 50 μg CpG or non-CpG. Tregs (1×10^6/recipient) were mixed with nylon-wool enriched BM3 responder T cells (5×10^6/recipient) and co-injected into CBK recipients (2-3 mice/group). Positive controls were CBK mice receiving BM3 T cells without Tregs; negative controls were CBA mice (lacking target antigen) receiving BM3 T cells. After 96 hours, mice were sacrificed and spleen cells stained with antibodies against CD8 (PerCP), CD25 (APC), H2K^b (PE) and biotinylated Ti98 (BM3 anti-clonotypic antibody, visualized with streptavidin APC (Tarazona et al. (1996) International Immunology 8:351-358). Except for Ti98, all antibodies were from Pharmingen (San Diego, Calif.).

BM3 T cells [6] = assay: Ex vivo T cell suppression assays with sorted Tregs from treated mice; format: in vivo, mouse
Procedure: as §1
1-methyl-[D]-tryptophan (1 mT). 1 mT (catalog number 45, 248-3, Sigma) was prepared as a 20 mM stock solution in 0.1 N NaOH, adjusted to pH 7.4, and stored at −20° C. protected from light. For in vitro use, 1 mT was added to MLRs to a final concentration of 100 μM. For in vivo treatment, slow-release polymer pellets (*5 mg/day) containing 1 mT or vehicle alone were inserted under the dorsal skin as described (Munn et al. Science 1998; 281:1191-1193) 24 hours before CpG treatment.
Preparative flow cytometry to sort CD4+ T cells subsets. CD4+ T cell subsets were purified using a Mo-Flo cytometer as described (Mellor et al. J Immunol 2005; 175:5601-5605; Munn et al. Immunity 2005; 22:1-10).
Ex vivo T cell suppression assays. Suppression assays were performed by adding sorted CD4+ cells to T cell proliferation assays (72 hour thymidine incorporation assays) containing responder H-2K^b-specific splenocytes from BM3 TCR transgenic mice (nylon-wool enriched) and CD11c+ splenocytes (AutoMacs enriched) from CBK (H-2K^b transgenic CBA) mice prepared as described (Mellor et al. J Immunol 2005; 175:5601-5605).

Molecule: COc1ccc(C=CC(=O)Nc2ccccc2C(=O)O)cc1OC [3,4-DAA, N-(3,4,-Dimethoxycinnamoyl)anthranilic acid]
- paralysis in experimental autoimmune encephalomyelitis [1]: reverse paralysis
- inflammatory cytokine production by auto-reactive T cells (auto-reactive T cells): inhibit inflammatory cytokine production

Molecule: Nc1c(O)cccc1C(=O)O [3-hydroxyanthranilic acid]
- paralysis in experimental autoimmune encephalomyelitis [1]: reverse paralysis
- inflammatory cytokine production by auto-reactive T cells (auto-reactive T cells): inhibit inflammatory cytokine production

Molecule: Cn1cc(C[C@H](N)C(=O)O)c2ccccc21 [Inhibitor 1-MT, 1-methyl-tryptophan]
- IDO-mediated prevention of P815 rejection by pre-immunized hosts [2]: substantially reversed
- tumor outgrowth (Lewis Lung carcinoma): significantly delayed tumor outgrowth

Molecule: Nc1ccccc1C(=O)CC(N)C(=O)O (stereo not shown) [KYN, Kynurenine]
- bystander suppression with excess kynurenine when IDO blocked with 1MT (OT-I and A1 T cells; 1MT+25 uM kynurenine): did not recapitulate suppression
- functional suppressor activity of PDC-primed T cells in MLR [3]: restored the generation of functional suppressor activity
- hyporesponsiveness of primed T cells to alloantigen stimulation in MLR [3]: restored
- CD4+CD25+Foxp3+ Treg generation in priming MLRs containing 1MT ([4]; KYN 50 μM added with 1MT 250 μM, ODN 2216-PDC, day 7): restored CD4+CD25+Foxp3+ Treg generation

Molecule: N[C@@H](Cc1c[nH]c2ccccc12)C(=O)O [tryptophan]
- IDO-induced bystander suppression, effect of added agent (OT-I and A1 T cells; not in transwells, thymidine incorporation/CFSE, tryptophan 10× (250 uM)): abrogated suppression

Molecule: ODN 2216: Phosphorothioate-modified type-A CpG ODN gGGGACGATCGTCgggggG (SEQ ID NO:2) (DNA dG*dGdGdGdAdCdGdAdTdCdGdTdCdG*dG*dG*dG*dG*dG)
- IDO expression of PDCs during culture (IDO protein in PDCs): sustained their IDO expression
- cell surface expression of CD80, CD86, HLA-DR on PDCs (PDCs): upregulate cell surface expression
- frequency of PDC-induced CD4+CD25+Foxp3+ Tregs ([4]; day 7 of cultures, CpG ODN 1 μg/ml, mean±SD, 5.7±3.1% without CpG ODN): 21.6±5.2%

Molecule: non-CpG: sequence matched non-CpG ODN TCCATGAGCTTCCTGAGCTT (SEQ ID NO:5) (DNA dT*dC*dC*dA*dT*dG*dA*dG*dC*dT*dT*dC*dC*dT*dG*dA*dG*dC*dT*dT)
- number of CHOP+ Tregs over basal levels (splenic Tregs): only slightly increased
- spleen tissue pathology after co-transfer of Tregs from treated donor mice (BM3 T cells [5]): did not prevent extensive tissue pathology
- clonal expansion of BM3 T cells in vivo after co-transfer of Tregs from treated donor mice (BM3 T cells [5]; donors treated 24 hours with 50 μg): did not inhibit
- suppressor functions of purified Tregs from IDO-KO mice (BM3 T cells [6]; IDO-KO mice): no significant increase in suppressor functions
- suppression of BM3 T cell proliferation by purified Tregs from treated mice (BM3 T cells [6]; mice treated 24 hours, 50 μg/mouse i/v, IDO-WT, 72 hour thymidine incorporation): did not suppress BM3 proliferation
